# Literature values as cited in PMC3726058 (European journal of pharmacology, 2010).
# Assays:
# σ1 versus σ2 = conditions: rat brain membranes; ref Klouz et al., 2003; Matsuno et al., 1996
# adrenergic α2 = conditions: read-out: Ki α2; ref Yous et al., 2005
# histamine H1 = conditions: read-out: Ki H1; ref Yous et al., 2005
# σ1 over the σ2 subtype = conditions: ref Bowen, 1993
compound,measurement,setting,value
COc1ccc(CN2CCN(Cc3ccccc3)CC2)c(O)c1OC [BHDP],affinity for σ1 versus σ2,σ1 versus σ2,approximately 100 fold
COc1ccc(CCN2CCN(CCCc3ccccc3)CC2)cc1OC [SA4503],affinity for σ1 versus σ2,σ1 versus σ2,approximately 100 fold
"CCCc1ccc2c(c1)sc(=O)n2CCN1CCCCCC1 [SN56, 3-(2-(azepan-1-yl)ethyl)-6-propylbenzo[d]thiazol-2(3H)-one]",Ki,adrenergic α2,205 nM
same,Ki,histamine H1,311 nM
CC(C)=CCN1CC[C@]2(C)c3cc(O)ccc3C[C@H]1[C@H]2C [[^3H](+)-Pentazocine],preference for σ1 over σ2 subtype,σ1 over the σ2 subtype,> 700 fold
